Laboratory results as given in ChEMBL document CHEMBL3507680, “University of Dundee, Gates Library screen for HepG2 cell viability”.

Experiment: Human HepG2 cell viability assay in 384 well format
Type: toxicity, cell-based
Design: dose 125 nL, time 70.5 hour; concentration not given beside the values
Settings: HepG2 cells, read-out: Inhibition
Compound CCn1cc(CN2C[C@H]3CC[C@@H]2CN(C(=O)C2CCC2)C3)cn1 has a cytotoxicity at 70.5 h of -6.91%.
In the case of CC(C)c1cc(NC(=O)c2ccncc2)[nH]n1, the cytotoxicity at 70.5 h is reported as 2.62%.
c1coc(CN2C[C@@H]3CCCO[C@@H]3[C@H](N3CCCC3)C2)c1 gave a cytotoxicity at 70.5 h of -8.85%.
Work on Cc1nn(-c2ncccn2)c2c1C(c1cnn(C)c1)SCC(=O)N2 (configuration not stated) yielded a cytotoxicity at 70.5 h of -24.2%.
In the case of COCCCN1C(=O)CC[C@H]2CN(c3ccnc4ccccc34)CC[C@H]21, the cytotoxicity at 70.5 h is reported as -5.09%.
CCC(O)CN1CCN(C(=O)c2cnn(-c3ccccc3F)c2)CC1 (configuration not stated) gave a cytotoxicity at 70.5 h of 2.94%.
Compound CS(=O)(=O)N1CCC[C@H]1c1ncnn1-c1ccc2c(c1)OCO2 has a cytotoxicity at 70.5 h of -1.95%.
Work on Cc1ccc(C(CNC(=O)Nc2cn[nH]c2)N2CCOCC2)o1 (configuration not stated) yielded a cytotoxicity at 70.5 h of -1.26%.
With O=C(Nc1cccc(OCC(F)F)n1)c1ccncc1 the cytotoxicity at 70.5 h was -8.53%.
Compound COc1ccc(C(NCc2ccc(C#N)cc2)C2CC2)cc1 (configuration not stated) has a cytotoxicity at 70.5 h of -7.6%.
CCc1onc(C)c1C(=O)N1CCC(c2cc3ncccc3cn2)CC1 showed a cytotoxicity at 70.5 h of 9.24%.
With CCCN1CCC(C(=O)NCCN(CC)c2ccccc2C)CC1 the cytotoxicity at 70.5 h was 17.6%.
For CCOc1cc(C)nc(N2CCN(C(=O)c3csnn3)CC2)n1, the cytotoxicity at 70.5 h was -12.5%.
With c1ccc(NCc2cccc(OCCN3CCOCC3)c2)nc1 the cytotoxicity at 70.5 h was 6.42%.
For Cc1cc(C(=O)NCc2ccnc(N3CCOCC3)c2)c(C)s1, the cytotoxicity at 70.5 h was -13.9%.
With O=S1(=O)CCC(c2nc(-c3cccc(Br)c3)no2)C1 (configuration not stated) the cytotoxicity at 70.5 h was -8.75%.
COc1ccc(-n2cc(CCO)cn2)cc1C(N)=O gave a cytotoxicity at 70.5 h of -14.7%.
With Cc1cnn(CC2CCCN2C(=O)c2cc(O)nc3ccccc23)c1 (configuration not stated) the cytotoxicity at 70.5 h was -7.86%.
CC[C@H]1COCCN1C(=O)c1ccc(OC)c(N2CCOCC2)c1 gave a cytotoxicity at 70.5 h of -10.3%.
Cc1nc(C)n(CC2CCCN(CCOc3cccc(C#N)c3)C2)n1 (configuration not stated) showed a cytotoxicity at 70.5 h of 40.4%.
Compound CCc1cn[nH]c1C1CCCN(C(=O)c2cnc(NC(C)C)nc2)C1 (configuration not stated) has a cytotoxicity at 70.5 h of -5.16%.
For O=C(NC(c1ccccc1)c1cccnc1)C1CC1 (configuration not stated), the cytotoxicity at 70.5 h was -6.82%.
In the case of CCc1cnc(NCCSc2cnn[nH]2)nc1, the cytotoxicity at 70.5 h is reported as 28.2%.
COC(=O)N1CCCN(C(=O)c2cccc3cccnc23)CC1 showed a cytotoxicity at 70.5 h of -7.61%.
Compound COCC1CN(Cc2cnn(C)c2)Cc2nn(C)cc21 (configuration not stated) has a cytotoxicity at 70.5 h of -11.4%.
Cn1c(CN2CCN(c3cccnc3)CC2)cc2ccccc21 gave a cytotoxicity at 70.5 h of -4.28%.
CCNC(=O)[C@@H]1C[C@H](N)CN1Cc1ccc(-c2ccccc2C#N)o1 showed a cytotoxicity at 70.5 h of 9.56%.
CCNC(=O)c1cnc(Sc2nccn2C)c(Cl)c1 gave a cytotoxicity at 70.5 h of -2.03%.
For Cc1cc(C)nc(NC2CCCN(CCCc3ccccc3)C2)n1 (configuration not stated), the cytotoxicity at 70.5 h was 54.5%.
Cc1ccc(C(C)NC(=O)CCc2cnn(C)c2)cc1F (configuration not stated) showed a cytotoxicity at 70.5 h of -8.21%.
In the case of O=C(NCCNc1ncccn1)C1CC(=O)N(Cc2ccco2)C1 (configuration not stated), the cytotoxicity at 70.5 h is reported as -4.28%.
With CC(C)Cn1cncc1CNC1CCSC1 (configuration not stated) the cytotoxicity at 70.5 h was 21.1%.
CC(C)CN1C(=O)CC(N2CCN(c3ccc(F)cc3)CC2)C1=O (configuration not stated) gave a cytotoxicity at 70.5 h of 13.6%.
In the case of O=C(Nc1cccnc1N1CCSCC1)c1ccc2c(c1)OCO2, the cytotoxicity at 70.5 h is reported as -4.23%.
Compound Cc1ccsc1C(=O)N1Cc2ncn(C)c2C(COCC2CC2)C1 (configuration not stated) has a cytotoxicity at 70.5 h of 5.9%.
Work on CCCC(NC(=O)c1cscc1C)c1nnn[nH]1 (configuration not stated) yielded a cytotoxicity at 70.5 h of -2.41%.
For Cc1ccccc1S(=O)(=O)NC(=O)C1(c2ccccc2)CCC1, the cytotoxicity at 70.5 h was -9.55%.
With Cc1c[nH]nc1C1CCCCN1C(=O)Cn1cc(Cl)cn1 (configuration not stated) the cytotoxicity at 70.5 h was -15.8%.
CCC(CNC(C)=O)(OC)c1ccccc1 (configuration not stated) showed a cytotoxicity at 70.5 h of -6.06%.
With c1cc(CN2CCCC(c3ccnc4nccn34)C2)ccn1 (configuration not stated) the cytotoxicity at 70.5 h was -3.33%.
COc1ccc(C2CCN(Cc3cscn3)CC2)cc1 gave a cytotoxicity at 70.5 h of 0.308%.
For COc1ccc(CN2CCCC3(CC2)CNC(=O)O3)cc1OC (configuration not stated), the cytotoxicity at 70.5 h was 12.1%.
Cc1cc(F)ccc1CNCCn1cccn1 gave a cytotoxicity at 70.5 h of -1.75%.
With Cc1noc(C2CCCN(C(=O)c3ccc(N(C)C)nc3)C2)n1 (configuration not stated) the cytotoxicity at 70.5 h was -8.13%.
With CN1CCN(C)C2(CCN(C(=O)CC(F)(F)F)CC2)C1=O the cytotoxicity at 70.5 h was 0.213%.
For Cc1cc(NC(=O)NCC(c2ccccc2)N2CCOCC2)n(C)n1 (configuration not stated), the cytotoxicity at 70.5 h was -3.59%.
With COCCN(C)c1ccc(NCc2ccsc2)nc1 the cytotoxicity at 70.5 h was -10.2%.
